One assay has as its system NRF2. The assay is described as follows: NRF2/MAP2 immunostaining in trigeminal ganglia. The class given is in vivo, mouse. Conditions: immunohistochemistry 24 h after the fourth dose; 10 mg/kg, i.p.
In assay [1] the test system is NRF2 target genes. The assay is described as follows: Quantitative PCR of NRF2 target genes from maxillary nerves. It is filed as in vivo, mouse. Conditions: qPCR normalized to Actb, 11 days of treatment, i.p.; for Hmox1 expression in maxillary nerves / Prdx1 expression in maxillary nerves / Txnrd1 expression in maxillary nerves: exemestane 10 or JQ-1 40 mg/kg. Here is the method: FIGS. 17A-17J show differential upregulation of NRF2 target genes after treatment with exemestane and JQ-1. Quantitative PCR analysis of Ngo1, Hmox1 Txnrd1, Prdx1, and Gclc, as indicated, normalized to Actb from maxillary nerves of mice after 11 days of treatment with either exemestane (FIGS. 17A-17E; 10 mg/kg, i.p.) or JQ-1 (FIGS. 17F-17J; 40 mg/kg, i.p.) compared to vehicle is shown. Points represent individual mice. Median and range depicted. *=P<0.05. **=P<0.01, and ns=P>0.05 by two-tailed unpaired Student's t-test.
DNA/RNA Isolation. PCR, and Quantitative-PCR (q-PCR) Total cellular or tissue DNA/RNA was extracted using the DNeasy Blood & Tissue Kit (Qiagen) for DNA or RNeasy Plus Universal Kit (Qiagen) for RNA per the manufacturer's instructions. PCR was performed with the Platinum Taq DNA Polymerase High Fidelity Kit (Invitrogen), whereas q-PCR was performed with the TaqMan RNA-to-Ct I-Step Kit (Applied Biosystems).
Background: Real-time PCR tracks product formation cycle by cycle.

Assay [2] relates to NRF2 target genes. Nature of the assay: Upregulation of canonical NRF2 target genes (no method given). It is filed as cell-based.
Another assay has as its system maxillary nerves. The assay is described as follows: Myelin basic protein (MBP) immunostaining of maxillary nerves. As to conditions: ten days post-surgery; sulforaphane 10, exemestane 10, JQ-1 40 mg/kg, i.p. daily; vs vehicle-treated ligated nerves. It is filed as in vivo, mouse. How it is done:
Histology Maxillary nerves from mice were dissected and fixed in cold 4% formaldehyde (v/v) overnight at 4° C. Tissues were then cryoprotected through a series of 10%, 20%, and 30% sucrose (w/v) gradients for 24 hrs each at 4° C. Tissues were then embedded in Optimal Cutting Temperature compound (OCT) and sectioned in 20 μm intervals with a cryostat, after which the sections were dried onto slides and kept at […]. Sections were then processed for immunohistochemistry.
Immunohistochemistry was performed as previously described (Vasavda C et al., Cell Chem Biol 2019; 26(10):1450-1460.e7, incorporated herein by reference in its entirety). Briefly, sections were post-fixed with 4% parafomaldehyde for 15 min at 25° C. and then permeabilized with 100% methanol for 7 min at −20° C. The slides were then pre-incubated in blocking solution (10% normal goat serum (ThermoFisher Scientific)) for 30 min at 25° C. Sections were incubated overnight at 4° C. with the appropriate primary antibodies in blocking solution. Sections were washed and incubated with the appropriate secondary antibodies diluted 1:250 in blocking solution for 1 h at 25° C. Tissues were then mounted with ProLong Gold Antifade Mountant with DAPI (Invitrogen).
MBP immunostaining: Mice were first dosed daily with either sulforaphane (10 mg/kg, i.p.), exemestane (10 mg/kg, i.p.), JQ-1 (40 mg/kg, i.p.), or the appropriate vehicle for two days before surgical ligation of the maxillary nerve, after which they were dosed every 24 h for 10 days thereafter. MBP immunostaining was performed ten days post-surgery. MBP stains were interpreted by a pathologist to morphologically assess the degree of damage from nerve injury and response to drug treatment. Antibodies: primary antibodies: chicken anti-MBP (1:500); secondary antibodies: goat anti-chicken (Alexa 488, A32931 Invitrogen).

Assay [3] has as its system constrictive mouse model of trigeminal neuralgia. The assay is described as follows: Cold allodynia (ice-cold acetone) after constriction of the maxillary nerve. It is filed as in vivo. Conditions: i.p. daily, sulforaphane 10 mg/kg; for cold allodynia (analgesic effect): NRF2−/− mice, exemestane 10 mg/kg, JQ-1 40 mg/kg.
Assay [4] relates to maxillary nerves of mice after nerve ligation. The assay is described as follows: Oxidative stress assay in maxillary nerves (4-HNE, protein carbonylation, MDA). It is filed as in vivo, mouse. As to conditions: for levels of 4-HNE in maxillary nerves after nerve ligation / protein carbonylation in maxillary nerves after nerve ligation: western blot normalized to β-actin, daily i.p. pre-treatment, vs vehicle. Here is the method: Western Blotting Western blotting was performed as previously described (See Vasavda, C. et al. Cell Chem Biol 26, 1450-1460.e7 (2019)). Briefly, tissues were homogenized at 4° C. in lysis buffer (pH 7.4 solution of 50 mM Tris-HCl, 150 mM NaCl, 0.1% SDS, 0.5% sodium deoxycholate, and 1% Triton X-100) supplemented with protease inhibitors (Sigma). When dissecting maxillary nerves for immunoblot analysis, nerves were as dissected both as proximally towards the semilunar ganglion and as distal to the skin as possible. Nerves were harvested 11 days after surgery, immediately after the final behavioral test. Lysates were then pulse sonicated and centrifuged at 16,000 g for 10 min at 4° C. Fifteen micrograms of cleared lysate were run on a 4-12% polyacrylamide Bis-Tris gradient gel in running buffer (pH 7.3 solution of 50 mM MES, 50 mM Tris Base, 0.1% SDS, 1 mM EDTA) and then transferred to a PVDF membrane. Membranes were blocked with 5% milk in TBS-T (pH 7.6 solution of 16 mM Tris-HCl, 140 mM NaCl, 0.1% Tween-20) for 1 hr at 25° C. and then incubated with primary antibodies in 3% bovine serum albumin (BSA) (w/v) in TBS-T overnight at 4° C. The following day, membranes were washed with TBS-T, and then incubated with secondary antibodies in 3% BSA (w/v) in TBS-T for 1 hr at 25° C. The following primary antibodies were used: rabbit anti-4-HNE (Abeam ab46545; 1:1.000), rabbit anti-TRPA1 (Novus Biologicals NB110-40763; 1:1,000), rabbit anti-DNP (Millipore Sigma 90451; 1:150), and mouse anti-β-actin (Santa Cruz Biotech sc-47778 HRP; 1:10,000). The following secondary antibodies were used: donkey anti-rabbit IgG (GE Healthcare NA934; 1:10,000) and goat anti-rabbit (Millipore Sigma 90452; 1:300).
Oxidative Stress Assay % 4-HNE was quantified by Western blot as described above with a rabbit anti-4-HNE (Abeam ab46545; 1:1,000) primary antibody. Protein carbonylation was assessed with the OxyBlot Protein Oxidation Detection Kit as per the manufacturer's instructions. Protein carbonylation was quantified by western blot as described above with a rabbit anti-DNP (Millipore Sigma 90451; 1:150) primary antibody. MDA was quantified with the OxiSelect TBARS Assay Kit as per the manufacturer's instructions. Concentrations below the limit of detection (LOD) were censored and substituted with a constant value of the […].
For orientation: Immunoblotting shows a protein as a band on a membrane.

Assay [5] deals with NRF2 target genes. As to conditions: corneal fibroblasts and monocytes; cited from earlier work.

Regarding `C=C1C[C@@H]2[C@H](CC[C@]3(C)C(=O)CC[C@@H]23)[C@@]2(C)C=CC(=O)C=C12` [exemestane, 6-methylenandrosta-1,4-diene-3,17-dione], in the assay on NRF2, the “NRF2 expression in neurons of the trigeminal ganglion” value is on record as “robustly increased NRF2 expression”. The “Nqo1 expression in maxillary nerves” value in the assay on NRF2 target genes [1] (exemestane 10 mg/kg) is reported as “upregulated”. In addition, in the assay with NRF2 target genes [1], the “Hmox1 expression in maxillary nerves” value was “upregulated”, the “Prdx1 expression in maxillary nerves” value is given as “upregulated” and the “Txnrd1 expression in maxillary nerves” value is on record as “upregulated”. Besides, the “induction of the canonical NRF2 target Nqo1” value in the assay with NRF2 target genes [2] is recorded as “upregulated the canonical NRF2 target Ngo1”. For the same molecule, in the assay on maxillary nerves, the “nerve architecture by myelin basic protein staining” value (“nerve architecture” for short) was “better preserved nerve architecture with increased density of myelinated axons of varying sizes”. In addition, the “cold allodynia (analgesic effect)” value in assay [3] was “lose their analgesic effects”. For the same molecule, in assay [4], the “levels of 4-HNE in maxillary nerves after nerve ligation” value (“levels of 4-HNE in maxillary nerves” for short) is “reduced” and the “protein carbonylation in maxillary nerves after nerve ligation” value (from here on “protein carbonylation”) is on record as “reduced”.

Take `Cc1sc2c(c1C)C(c1ccc(Cl)cc1)=N[C@@H](CC(=O)OC(C)(C)C)c1nnc(C)n1-2` [JQ-1, (S)-tert-butyl 2-(4-(4-chlorophenyl)-2,3,9-trimethyl-6H-thieno[3,2-f][1,2,4]triazolo[4,3-a][1,4]diazepin-6-yl)acetate]: in the assay on NRF2 target genes [1], the “Hmox1 expression in maxillary nerves” value is given as “most potently upregulated”, the “Prdx1 expression in maxillary nerves” value is “upregulated” and the “Txnrd1 expression in maxillary nerves” value is on record as “did not increase”. Moreover, in the assay with maxillary nerves, the “nerve architecture” value is given as “better preserved nerve architecture with increased density of myelinated axons of varying sizes”. In addition, the “cold allodynia (analgesic effect)” value in assay [3] is “lowers”. The “upregulation of NQO1 and HMOX1” value in the assay on NRF2 target genes [5] was “upregulates NQO1 and HMOX1”. In assay [4], the “levels of 4-HNE in maxillary nerves” value is “reduced” and the “protein carbonylation” value is listed as “reduced”.

As for `C[S+]([O-])CCCCN=C=S` (stereo not shown) [sulforaphane, 1-isothiocyanato-4-(methanesulfinyl)butane], the “NRF2 expression in neurons of the trigeminal ganglion” value in the assay on NRF2 is recorded as “robustly increased NRF2 expression”. The “nerve architecture” value in the assay with maxillary nerves is on record as “more normal architecture with myelinated axons of varying sizes”. Moreover, in assay [3], the “cold allodynia (analgesic effect)” value is given as “lose their analgesic effects”. In assay [3] (TRPA1−/− mice, compared with genetic deletion of TRPA1 alone), the cold allodynia entry is listed as “did not lower”. Besides, the “malondialdehyde in maxillary nerves after nerve ligation” value in assay [4] (sulforaphane 10 mg/kg, i.p., normalized to protein) was “reduced”. Moreover, in assay [4], the “levels of 4-HNE in maxillary nerves” value is “reduced” and the “protein carbonylation” value is “reduced”.

The values are drawn from patent US20250064846A1, “TREATMENT AND PREVENTION OF TRIGEMINAL NEURALGIA” (THE JOHNS HOPKINS UNIVERSITY, priority 2022, published 2025).
